Test results: patent publication US6362331B1, “Process for the preparation of antitumor agents” (priority 2001, dated 2002)

Tests used:
calf thymus DNA = assay: Thermal denaturation with calf thymus DNA; format: binding; details: for Induced ΔTm after Incubation at 37° C. for 0 h / Induced ΔTm after Incubation at 37° C. for 18 h: [PBD]:[DNA] molar ratio 1:5; for ΔTm (elevation of helix melting temperature of CT DNA): 1:5 molar ratio (PBD):(DNA), incubation for 18 h at 37° C.
Procedure: (§1) Biological Activity: In vitro anticancer activity studies were carried out at National Caner Institute (USA) and the thermal denaturation of DNA was performed at School of Life Science, University of Hyderabad.
(§2) Table 1: Thermal denaturation with calf thymus DNA^a, at a [PBD]:[DNA]molar ratio of 1:5^b and in vitro one dose primary anticancer assay^c in the NCI-H460, MCF 7 and SF-268 for Vi, wherein R is H; R1 is H, OH or OAc; and n is 3 to 5.

NCI-H460 (Lung) = assay: In vitro one dose primary anticancer assay (NCI), NCI-H460; format: cell-based, human
Procedure: as §1, §2
(§3) In this assay, for a 1:5 molar ratio of (PBD):(DNA), one of this mixed imine-amide PBD dimer VI, where n is 5, elevates the helix melting temperature of CT DNA remarkably to 17° C. after incubation for 18 h at 37° C.

MCF 7 (Breast) = assay: In vitro one dose primary anticancer assay (NCI), MCF 7; format: cell-based, human
Procedure: as §1, §2, §3

SF-268 (CNS) = assay: In vitro one dose primary anticancer assay (NCI), SF-268; format: cell-based, human
Procedure: as §1, §2, §3

P388 = details: Kaneko et al., J. Med Chem. 1985; cited from earlier work

| Compound | Induced ΔTm after Incubation at 37° C. for 0 h (calf thymus DNA) [C] | Induced ΔTm after Incubation at 37° C. for 18 h (calf thymus DNA) [C] | Growth Percentage (Lung) NCI-H460 (NCI-H460 (Lung)) | Growth Percentage (Breast) MCF 7 (MCF 7 (Breast)) | Growth Percentage (CNS) SF-268 (SF-268 (CNS)) | ΔTm (elevation of helix melting temperature of CT DNA) (calf thymus DNA) [°C] | in vivo antitumour activity (P388) |
| --- | --- | --- | --- | --- | --- | --- | --- |
| COc1cc2c(cc1OCCCCOc1cc3c(cc1OC)NC(=O)[C@H]1CCCN1C3=O)N=C[C@@H]1CCCN1C2=O [VI (n is 4)] | 5.0 | 8.5 | −16 | −41 | −81 | – | – |
| COc1cc2c(cc1OCCCOc1cc3c(cc1OC)NC(=O)[C@H]1CCCN1C3=O)N=C[C@@H]1CCCN1C2=O [VI (n is 3)] | 6.5 | 7.0 | 4 | 10 | 11 | – | – |
| COc1cc2c(cc1OCCCOc1cc3c(cc1OC)C(=O)N1CCC[C@H]1C=N3)N=C[C@@H]1CCCN1C2=O [DSB-120, reference compound] | 10.2 | – | – | – | – | – | – |
| COc1cc2c(cc1O)N=CC1CCCN1C2=O (stereo not drawn) [DC-81, reference compound] | 0.3 | 0.7 | – | – | – | 0.7 | – |
| COc1cc2c(cc1OCCCCCOc1cc3c(cc1OC)NC(=O)[C@H]1CCCN1C3=O)N=C[C@@H]1CCCN1C2=O [VI (n is 5), 8-methoxy-7-3-[7-methoxy-5-oxo-(11aS)-2,3,4,11a-tetrahydro-1H-pyrrolo[2,1-c][1,4]-benzodiazepine-8-yloxy]pentyloxy-(11aR)-2,3,5,10,11a hexahydro-1H -pyrrolo[2,1-c][1,4]benzodiazepine-5,11-dione] | 14.0 | 17.0 | −39 | 7 | −21 | 17 | – |
| COc1cc2c(cc1OC(C)=O)NC(=O)C1C[C@H](OC(C)=O)CN1C2=O (stereo partly drawn) [(7-methoxy-2-methylcarbonyloxy-5,11-dioxo-(2S)-2,3,5,10,11,11a-hexahydro-1H-pyrrolo[2,1-c][1,4]-benzodiazepine-5,11-dione-8-yl acetate] | – | – | – | – | – | – | significant in vivo antitumour activity |
